{"source": "ChEMBL document CHEMBL1152979", "about": "“Inhibition of the insulin-like growth factor-1 receptor (IGF1R) tyrosine kinase as a novel cancer therapy approach” (J Med Chem, 2009)", "key": {"[1]": {"target": "T1, Insulin-like growth factor 1 receptor (Homo sapiens, UniProt P08069)", "T1 sequence (P08069 31-736 limits assumed)": "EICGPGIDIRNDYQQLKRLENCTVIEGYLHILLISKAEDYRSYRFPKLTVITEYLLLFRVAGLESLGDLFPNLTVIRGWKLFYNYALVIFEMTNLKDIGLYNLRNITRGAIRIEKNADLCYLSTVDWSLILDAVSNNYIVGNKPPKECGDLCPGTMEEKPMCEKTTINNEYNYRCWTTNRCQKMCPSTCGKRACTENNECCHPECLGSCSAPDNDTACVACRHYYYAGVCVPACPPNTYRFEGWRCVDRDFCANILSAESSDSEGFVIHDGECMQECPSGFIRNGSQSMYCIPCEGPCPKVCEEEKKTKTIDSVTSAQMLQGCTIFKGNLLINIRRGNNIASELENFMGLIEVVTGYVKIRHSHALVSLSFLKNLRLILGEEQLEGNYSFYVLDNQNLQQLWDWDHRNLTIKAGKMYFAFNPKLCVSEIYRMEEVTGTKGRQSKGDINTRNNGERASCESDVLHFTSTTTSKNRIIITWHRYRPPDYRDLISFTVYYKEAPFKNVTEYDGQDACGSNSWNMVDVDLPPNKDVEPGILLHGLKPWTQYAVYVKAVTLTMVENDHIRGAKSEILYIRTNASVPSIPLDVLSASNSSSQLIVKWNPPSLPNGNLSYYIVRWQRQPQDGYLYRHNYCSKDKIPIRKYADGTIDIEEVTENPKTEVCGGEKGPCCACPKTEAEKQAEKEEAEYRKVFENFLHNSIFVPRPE", "T1 sequence (P08069 741-1367 limits assumed)": "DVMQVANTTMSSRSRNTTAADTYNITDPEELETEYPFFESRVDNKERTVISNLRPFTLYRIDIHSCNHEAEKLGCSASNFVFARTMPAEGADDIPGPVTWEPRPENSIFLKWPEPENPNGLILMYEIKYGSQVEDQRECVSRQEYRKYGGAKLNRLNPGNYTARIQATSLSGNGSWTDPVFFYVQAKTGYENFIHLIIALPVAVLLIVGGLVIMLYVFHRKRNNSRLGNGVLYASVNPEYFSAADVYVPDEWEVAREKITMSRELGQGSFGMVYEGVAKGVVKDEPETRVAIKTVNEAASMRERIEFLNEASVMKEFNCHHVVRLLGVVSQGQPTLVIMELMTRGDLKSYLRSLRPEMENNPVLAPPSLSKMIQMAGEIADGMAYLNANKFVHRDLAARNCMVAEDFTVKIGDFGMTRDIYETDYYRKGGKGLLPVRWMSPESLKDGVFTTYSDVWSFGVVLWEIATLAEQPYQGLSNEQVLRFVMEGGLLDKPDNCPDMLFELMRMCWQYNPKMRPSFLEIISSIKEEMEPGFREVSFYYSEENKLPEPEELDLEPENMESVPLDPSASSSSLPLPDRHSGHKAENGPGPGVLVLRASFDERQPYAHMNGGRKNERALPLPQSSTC", "assay": "Inhibition of IGF1R in human MCF7 cells by Western blot analysis", "format": "cell-based"}, "Insulin receptor [2]": {"target": "T2, Insulin receptor (Homo sapiens, UniProt P06213)", "T2 sequence (P06213 28-758 limits assumed)": "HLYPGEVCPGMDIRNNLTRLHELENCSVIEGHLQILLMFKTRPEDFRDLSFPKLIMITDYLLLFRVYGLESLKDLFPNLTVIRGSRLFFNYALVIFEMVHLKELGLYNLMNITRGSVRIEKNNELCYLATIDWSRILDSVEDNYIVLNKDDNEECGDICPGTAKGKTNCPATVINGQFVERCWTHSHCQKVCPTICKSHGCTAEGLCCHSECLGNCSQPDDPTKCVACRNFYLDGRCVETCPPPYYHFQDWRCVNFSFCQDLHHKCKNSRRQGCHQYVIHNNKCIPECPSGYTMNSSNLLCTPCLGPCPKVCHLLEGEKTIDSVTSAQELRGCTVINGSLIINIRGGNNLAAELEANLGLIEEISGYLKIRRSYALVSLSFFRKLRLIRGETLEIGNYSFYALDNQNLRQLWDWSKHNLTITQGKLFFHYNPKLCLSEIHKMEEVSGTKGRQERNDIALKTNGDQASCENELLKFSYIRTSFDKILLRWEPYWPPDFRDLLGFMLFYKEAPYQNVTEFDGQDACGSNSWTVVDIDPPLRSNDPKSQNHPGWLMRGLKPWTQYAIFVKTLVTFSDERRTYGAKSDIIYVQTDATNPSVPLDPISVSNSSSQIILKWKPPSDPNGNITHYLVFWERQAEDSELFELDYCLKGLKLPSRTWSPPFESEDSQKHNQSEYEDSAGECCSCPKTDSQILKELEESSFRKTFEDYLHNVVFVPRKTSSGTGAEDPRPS", "T2 sequence (P06213 763-1382 limits assumed)": "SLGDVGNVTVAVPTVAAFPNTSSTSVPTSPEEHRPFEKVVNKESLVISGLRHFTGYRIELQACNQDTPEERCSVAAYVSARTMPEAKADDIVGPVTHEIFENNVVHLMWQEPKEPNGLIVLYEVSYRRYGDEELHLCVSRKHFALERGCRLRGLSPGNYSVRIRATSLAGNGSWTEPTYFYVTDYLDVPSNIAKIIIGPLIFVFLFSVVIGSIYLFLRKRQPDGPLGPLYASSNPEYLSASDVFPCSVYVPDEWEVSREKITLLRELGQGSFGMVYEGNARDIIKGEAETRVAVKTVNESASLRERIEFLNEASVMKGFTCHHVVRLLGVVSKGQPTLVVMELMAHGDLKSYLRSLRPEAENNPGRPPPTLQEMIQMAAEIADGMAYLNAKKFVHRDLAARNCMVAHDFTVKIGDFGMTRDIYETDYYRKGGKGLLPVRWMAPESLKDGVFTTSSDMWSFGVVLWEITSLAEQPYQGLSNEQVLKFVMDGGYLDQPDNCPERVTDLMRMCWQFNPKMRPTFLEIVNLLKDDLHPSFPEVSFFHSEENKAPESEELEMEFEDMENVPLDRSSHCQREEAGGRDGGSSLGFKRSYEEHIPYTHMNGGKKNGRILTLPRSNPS", "assay": "Inhibition of IRK"}, "[3]": {"target": "T1, Insulin-like growth factor 1 receptor", "assay": "Displacement of fluorescent ATP competitive ligand from IGF1R"}, "[4]": {"target": "T1, Insulin-like growth factor 1 receptor", "description": "Inhibition of IGF1R by cell based assay"}, "[5]": {"target": "T1, Insulin-like growth factor 1 receptor", "remark": "listed apart in the source"}, "[6]": {"target": "T1, Insulin-like growth factor 1 receptor", "assay": "Inhibition of GST-tagged human IGF1R expressed in baculovirus-infected Sf21 cells by scintillation proximity assay"}, "[7]": {"target": "T1, Insulin-like growth factor 1 receptor", "assay": "Inhibition of IGF1R in IGF1-stimulated human MCF7 cells by Western blot analysis", "format": "cell-based"}, "[8]": {"assay": "Selectivity for insulin receptor over IGF1R"}, "[9]": {"assay": "Selectivity for EGFR over HER2"}, "[10]": {"target": "Receptor tyrosine-protein kinase erbB-2 (Homo sapiens, UniProt P04626)", "assay": "Inhibition of HER2"}, "[11]": {"assay": "Inhibition of PDGFR"}, "[12]": {"target": "Vascular endothelial growth factor receptor 2 (Homo sapiens, UniProt P35968)", "assay": "Inhibition of VEGFR2"}, "Bcr/Abl fusion protein": {"target": "Bcr/Abl fusion protein (Homo sapiens, UniProt P00519)", "sequence (P00519 whole entry, the tested form may be a part)": "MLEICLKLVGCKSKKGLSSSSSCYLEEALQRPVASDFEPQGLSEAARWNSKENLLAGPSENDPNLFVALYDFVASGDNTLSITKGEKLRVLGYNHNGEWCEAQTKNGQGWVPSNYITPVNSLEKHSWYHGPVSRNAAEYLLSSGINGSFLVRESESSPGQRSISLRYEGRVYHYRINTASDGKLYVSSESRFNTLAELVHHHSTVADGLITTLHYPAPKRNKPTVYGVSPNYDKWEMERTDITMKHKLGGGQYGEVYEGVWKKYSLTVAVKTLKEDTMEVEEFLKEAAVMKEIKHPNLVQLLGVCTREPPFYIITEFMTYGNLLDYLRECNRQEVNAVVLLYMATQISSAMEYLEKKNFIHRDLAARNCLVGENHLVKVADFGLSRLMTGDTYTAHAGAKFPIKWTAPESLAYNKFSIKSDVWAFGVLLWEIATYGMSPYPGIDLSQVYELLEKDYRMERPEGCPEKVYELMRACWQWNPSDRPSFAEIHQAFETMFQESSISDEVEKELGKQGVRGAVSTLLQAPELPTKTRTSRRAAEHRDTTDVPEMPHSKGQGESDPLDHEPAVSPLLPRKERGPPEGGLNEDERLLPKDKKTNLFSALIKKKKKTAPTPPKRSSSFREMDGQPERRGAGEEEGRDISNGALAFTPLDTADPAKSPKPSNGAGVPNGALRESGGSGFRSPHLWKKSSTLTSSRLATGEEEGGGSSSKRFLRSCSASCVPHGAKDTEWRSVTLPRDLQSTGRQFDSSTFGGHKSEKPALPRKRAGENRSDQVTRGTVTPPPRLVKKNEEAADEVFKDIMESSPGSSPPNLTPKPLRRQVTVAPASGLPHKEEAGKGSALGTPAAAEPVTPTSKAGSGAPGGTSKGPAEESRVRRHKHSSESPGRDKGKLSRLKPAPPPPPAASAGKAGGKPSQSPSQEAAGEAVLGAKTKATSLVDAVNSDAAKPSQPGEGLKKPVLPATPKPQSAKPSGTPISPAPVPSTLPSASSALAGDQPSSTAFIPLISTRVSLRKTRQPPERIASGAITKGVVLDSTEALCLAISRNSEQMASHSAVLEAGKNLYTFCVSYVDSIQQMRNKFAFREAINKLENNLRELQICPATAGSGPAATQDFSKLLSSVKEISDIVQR", "sequence (P11274 whole entry, further chain, the tested form may be a part)": "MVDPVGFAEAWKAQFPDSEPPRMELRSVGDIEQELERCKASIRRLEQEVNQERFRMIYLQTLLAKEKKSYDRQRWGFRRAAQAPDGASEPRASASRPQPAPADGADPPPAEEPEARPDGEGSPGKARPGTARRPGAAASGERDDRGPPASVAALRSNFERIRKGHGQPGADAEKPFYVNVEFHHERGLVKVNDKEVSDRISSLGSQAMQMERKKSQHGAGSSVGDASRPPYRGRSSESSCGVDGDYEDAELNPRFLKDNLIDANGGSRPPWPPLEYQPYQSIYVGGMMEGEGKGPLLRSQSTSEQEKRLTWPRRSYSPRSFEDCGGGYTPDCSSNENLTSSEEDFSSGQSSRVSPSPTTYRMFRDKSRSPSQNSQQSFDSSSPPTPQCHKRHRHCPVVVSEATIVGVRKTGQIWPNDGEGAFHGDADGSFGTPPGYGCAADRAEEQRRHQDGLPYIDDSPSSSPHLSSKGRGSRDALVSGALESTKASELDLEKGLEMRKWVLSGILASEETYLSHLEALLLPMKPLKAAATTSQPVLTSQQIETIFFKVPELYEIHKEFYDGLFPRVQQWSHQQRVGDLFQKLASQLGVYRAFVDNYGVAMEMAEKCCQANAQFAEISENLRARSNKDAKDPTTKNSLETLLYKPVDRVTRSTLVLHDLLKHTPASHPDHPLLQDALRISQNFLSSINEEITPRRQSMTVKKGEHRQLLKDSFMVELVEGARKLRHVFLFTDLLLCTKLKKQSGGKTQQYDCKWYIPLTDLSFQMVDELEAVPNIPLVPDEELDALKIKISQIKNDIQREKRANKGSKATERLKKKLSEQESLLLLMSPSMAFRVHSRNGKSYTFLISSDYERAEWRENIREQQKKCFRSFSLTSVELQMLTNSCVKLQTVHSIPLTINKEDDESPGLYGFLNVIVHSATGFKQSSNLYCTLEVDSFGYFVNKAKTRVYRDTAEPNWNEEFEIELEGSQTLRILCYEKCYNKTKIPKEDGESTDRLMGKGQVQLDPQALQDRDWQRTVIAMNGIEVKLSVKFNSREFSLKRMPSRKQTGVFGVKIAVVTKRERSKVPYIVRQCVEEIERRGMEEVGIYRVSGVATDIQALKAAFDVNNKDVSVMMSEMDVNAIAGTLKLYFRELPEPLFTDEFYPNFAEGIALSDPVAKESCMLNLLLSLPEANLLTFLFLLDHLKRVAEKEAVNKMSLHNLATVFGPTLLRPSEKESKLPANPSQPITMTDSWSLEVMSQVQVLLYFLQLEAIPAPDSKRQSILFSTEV", "assay": "Inhibition of BCR-ABL p210", "format": "protein assay"}, "[13]": {"target": "T1, Insulin-like growth factor 1 receptor", "remark": "listed apart in the source", "description": "Inhibition of IGF1R by cell based assay"}, "Insulin receptor [14]": {"target": "T2, Insulin receptor", "description": "Inhibition of insulin receptor by cell based assay"}, "[15]": {"target": "Mast/stem cell growth factor receptor Kit (Homo sapiens, UniProt P10721)"}, "[16]": {"assay": "Selectivity for HER2 over EGFR"}, "[17]": {"assay": "Cytotoxicity against human RD1 cells", "format": "functional, cell-based"}, "[18]": {"assay": "Cytotoxicity against human MDA PCa 2b cells", "format": "functional, cell-based"}, "COLO 205": {"system": "COLO 205", "assay": "Cytotoxicity against human COLO205 cells", "format": "functional, cell-based"}, "MCF7": {"system": "MCF7", "assay": "Cytotoxicity against human MCF7 cells", "format": "functional, cell-based"}, "Focal adhesion kinase 1": {"target": "Focal adhesion kinase 1 (Homo sapiens, UniProt Q05397)"}, "[19]": {"target": "Tyrosine-protein kinase Lck (Homo sapiens, UniProt P06239)"}, "[20]": {"target": "T1, Insulin-like growth factor 1 receptor", "assay": "Inhibition of IGF1R autophosphorylation in human MCF7 cells by Western blot analysis", "format": "cell-based"}, "[21]": {"target": "Epidermal growth factor receptor (Homo sapiens, UniProt P00533)", "assay": "Inhibition of HER1"}, "[22]": {"target": "T1, Insulin-like growth factor 1 receptor", "assay": "Inhibition for IGF1R-induced S6 ribosomal protein phosphorylation in growth factor-stimulated NHDF"}, "[23]": {"target": "T1, Insulin-like growth factor 1 receptor", "assay": "Inhibition of IGF1R in growth factor-stimulated NHDF"}}}
{"smiles": "CN1CCN(c2ccc(C(=O)Nc3n[nH]c4c3CN(S(=O)(=O)c3cc(F)cc(F)c3)CC4)c(NC(=O)c3ccc[nH]3)c2)CC1", "values": [{"measurement": "IC50", "setting": "[1]", "result": 80, "unit": "nM"}]}
{"smiles": "CCOC(=O)c1c(C=O)[nH]c(C(=O)OC(C)(C)C)c1CC", "values": [{"measurement": "Activity", "setting": "Insulin receptor [2]", "result": 2, "unit": "µM"}, {"measurement": "Activity", "setting": "[3]", "result": 0.49, "unit": "µM"}, {"measurement": "Activity", "setting": "[4]", "result": 5.3, "unit": "µM"}]}
{"smiles": "N#C/C(=C\\c1ccc(O)c(O)c1)C(=O)c1ccc(O)c(O)c1", "values": [{"measurement": "IC50", "setting": "[5]", "result": 61, "unit": "nM"}]}
{"smiles": "CN1CCN(c2ccc(C(=O)Nc3n[nH]c4c3CN(S(=O)(=O)c3cc(F)cc(F)c3)C4(C)C)cc2NC(=O)c2cc[nH]c2)CC1", "values": [{"measurement": "IC50", "setting": "[6]", "result": 90, "unit": "nM"}, {"measurement": "IC50", "setting": "[7]", "result": 300, "unit": "nM"}]}
{"smiles": "Cc1cc(N2CCOCC2)cc2[nH]c(-c3c(NC[C@H](O)c4ccccc4Cl)cc[nH]c3=O)nc12", "values": [{"measurement": "IC50", "setting": "[5]", "result": 830, "unit": "nM"}]}
{"smiles": "Nc1nccn2cnc(-c3ccc4ccc(-c5ccccc5)nc4c3C3CC(N4CC4)C3)c12", "note": "(configuration not stated)", "values": [{"measurement": "Selectivity ratio", "setting": "[8]", "result": 5}, {"measurement": "IC50", "setting": "[5]", "result": 20, "unit": "nM"}]}
{"smiles": "N#C/C(=C\\c1ccc(O)c(O)c1)C(=O)NCc1ccccc1", "values": [{"measurement": "Selectivity ratio", "setting": "[9]", "result": 100}]}
{"smiles": "Nc1ncnc2c1c(-c1cccc(OCc3ccccc3)c1)cn2[C@H]1C[C@H](N2CCCC2)C1", "values": [{"measurement": "IC50", "setting": "[10]", "result": "> 10000", "unit": "nM"}, {"measurement": "IC50", "setting": "[11]", "result": "> 10000", "unit": "nM"}, {"measurement": "IC50", "setting": "[12]", "result": "> 10000", "unit": "nM"}, {"measurement": "IC50", "setting": "Bcr/Abl fusion protein", "result": "> 10000", "unit": "nM"}, {"measurement": "IC50", "setting": "[13]", "result": 170, "unit": "nM"}, {"measurement": "IC50", "setting": "Insulin receptor [14]", "result": 2800, "unit": "nM"}, {"measurement": "IC50", "setting": "[15]", "result": "> 5000", "unit": "nM"}]}
{"smiles": "CC(C)(C)c1cc(/C=C(\\C#N)C(N)=S)cc(C(C)(C)C)c1O", "values": [{"measurement": "Selectivity ratio", "setting": "[16]", "result": 1000}]}
{"smiles": "Cc1cc(N2CCN(CCC#N)CC2)cc2nc(-c3c(NC[C@@H](O)c4ccccc4Cl)cc[nH]c3=O)[nH]c12", "values": [{"measurement": "IC50", "setting": "[17]", "result": 146, "unit": "nM"}, {"measurement": "IC50", "setting": "[18]", "result": 188, "unit": "nM"}, {"measurement": "IC50", "setting": "COLO 205", "result": 120, "unit": "nM"}, {"measurement": "IC50", "setting": "MCF7", "result": 234, "unit": "nM"}, {"measurement": "IC50", "setting": "Focal adhesion kinase 1", "result": 94, "unit": "nM"}, {"measurement": "IC50", "setting": "[19]", "result": "> 1500", "unit": "nM"}]}
{"smiles": "COc1ccc(Cl)cc1NC(=O)Nc1cc(C)nc2ccccc12", "values": [{"measurement": "IC50", "setting": "[20]", "result": "< 1000", "unit": "nM"}]}
{"smiles": "CCOC(=O)c1[nH]c(C=O)c(C(=O)OCC)c1C", "values": [{"measurement": "Activity", "setting": "Insulin receptor [2]", "result": 12, "unit": "µM"}, {"measurement": "Activity", "setting": "[3]", "result": 2.7, "unit": "µM"}, {"measurement": "Activity", "setting": "[4]", "result": 15, "unit": "µM"}]}
{"smiles": "O=C(O[C@@H]1Cc2ccccc2O[C@@H]1c1cc(O)c(O)c(O)c1)c1cc(O)c(O)c(O)c1", "values": [{"measurement": "IC50", "setting": "[5]", "result": 14000, "unit": "nM"}]}
{"smiles": "Nc1ncnc2c1c(-c1cccc(OCc3ccccc3)c1)cn2[C@H]1C[C@@H](CN2CCC2)C1", "note": "[AEW-541]", "values": [{"measurement": "IC50", "setting": "[21]", "result": "> 10000", "unit": "nM"}, {"measurement": "IC50", "setting": "Bcr/Abl fusion protein", "result": "> 10000", "unit": "nM"}, {"measurement": "IC50", "setting": "[15]", "result": "> 5000", "unit": "nM"}]}
{"smiles": "CN1CCN(c2ccc(C(=O)Nc3n[nH]c4c3CN(S(=O)(=O)c3cc(F)cc(F)c3)CC4)cc2)CC1", "values": [{"measurement": "IC50", "setting": "[22]", "result": 3050, "unit": "nM"}, {"measurement": "IC50", "setting": "[23]", "result": 340, "unit": "nM"}]}
{"smiles": "Cc1cc(N2CCOCC2)cc2[nH]c(-c3c(NC[C@@H](O)c4cccc(Cl)c4)cc[nH]c3=O)nc12", "values": [{"measurement": "IC50", "setting": "[17]", "result": 202, "unit": "nM"}, {"measurement": "IC50", "setting": "[18]", "result": 194, "unit": "nM"}]}
